17 molecules from patent US20250144067A1, “PERSONALIZED STARVATION THERAPY FOR CANCER” (Faeth Therapeutics, Inc., priority 2021, published 2025) can be followed below.

Counter-ions that a name gives are not always drawn. Like-named read-outs stand apart in the source and are kept apart here.

For experiment [1], the system named is NCI-H292 lung cancer cells. Kind of experiment: FDA drug screening, complete media vs cholesterol-free media without statin (TABLE 1). It counts as cell-based, human.
Experiment [2] concerns NCI-H292 lung cancer cells. Briefly: FDA drug screening, complete media vs cholesterol-free media with simvastatin (TABLE 2). It counts as cell-based, human.
Where [3] appears, read: Complete minus Cholesterol-free, >0 enhanced anti-cancer activity, about 0 neutral, <0 antagonist.
The mark [4] stands for this setting: NCI-H292 cells, cholesterol-free media without statin, FDA drug library screen.
Where [5] appears, read: NCI-H292 cells, complete media, FDA drug library screen.
Where [6] appears, read: NCI-H292 cells, FDA library drug in cholesterol-free media with simvastatin 0.04 μM.
Where [7] appears, read: NCI-H292 cells, FDA library drug in complete media.
[8] abbreviates: complete media vs cholesterol-free media + simvastatin (0.04 μM), >0 enhanced anti-cancer activity, about 0 neutral, <0 antagonist.
[9] abbreviates: NCI-H292 cells, FDA drug library screen, cholesterol-free media with simvastatin 0.04 μM.
Where [10] appears, read: NCI-H292 cells, FDA drug library screen, complete media.
Where [11] appears, read: NCI-H292 cells, cholesterol-free media with simvastatin 0.04 μM, FDA drug library screen (TABLE 2).
Where [12] appears, read: NCI-H292 cells, complete media, FDA drug library screen (TABLE 2).
[13] abbreviates: complete media minus cholesterol-free media + simvastatin (0.04 μM), >0 enhanced anti-cancer activity, about 0 neutral, <0 antagonist.
Setting [14] is: NCI-H292 cells, cholesterol-free media without statin.
[15] abbreviates: complete vs cholesterol-free media, greater than 0 enhanced anti-cancer activity, about 0 neutral, below 0 antagonists.
Where [16] appears, read: complete media minus cholesterol-free media + simvastatin, >0 enhanced anti-cancer activity, about 0 neutral, <0 antagonist.
Setting [17] is: Complete minus Cholesterol-free, greater than 0 enhanced anti-cancer activity, about 0 neutral, below 0 antagonists.
The mark [18] stands for this setting: NCI-H292 cells in cholesterol-free media without statin.
Where [19] appears, read: NCI-H292 cells in complete media.
Setting [20] is: NCI-H292 cells, cholesterol-free media with simvastatin 0.04 μM, cell growth value in FDA drug screen.
The mark [21] stands for this setting: NCI-H292 cells, complete media, cell growth value in FDA drug screen.

`N[C@H](Cc1ccc(O)cc1)C(=O)O` [D-Tyrosine]: the Difference in experiment [1] (setting [3]) is reported as −0.01; in experiment [2] (setting [8]), −0.43. In experiment [1] (setting [4]), this molecule gave a Cholesterol-free of 1.081. The molecule also yielded a Complete in experiment [1] (setting [5]) of 1.068. In addition, the “Cholesterol-free media + simvastatin (0.04 μM)” value in experiment [2] (setting [6]) stood at 1.43. In addition, in experiment [2] (setting [7]), the “Complete Media” value is listed as 0.9975.
With `C[C@H]1C[C@H]2[C@@H]3CCC4=CC(=O)C=C[C@]4(C)[C@@]3(F)[C@@H](O)C[C@]2(C)[C@@]1(O)C(=O)CO` [Betamethasone], the Difference is listed as −0.03 in experiment [1] (setting [3]) and −0.15 in experiment [2] (setting [8]). Moreover, the Cholesterol-free in experiment [1] (setting [4]) stood at 0.6463. Moreover, the Complete in experiment [1] (setting [5]) amounted to 0.6113. Further, the “Cholesterol-free media + simvastatin (0.04 μM)” value in experiment [2] (setting [9]) turned out to be 1.093. Further, the “Complete Media” value in experiment [2] (setting [10]) stood at 0.9456.
For `C1CCC(C(CC2CCCCN2)C2CCCCC2)CC1` (stereo not shown) [Perhexiline maleate], the Difference in experiment [1] (Complete minus Cholesterol-free, greater than 0 enhanced anti-cancer activity, about 0 neutral, below 0 antagonist) is listed as −0.14; in experiment [2] (setting [13]), −0.06. This molecule returned a Cholesterol-free in experiment [1] (NCI-H292 cells, FDA drug library screen, cholesterol-free media without statin) of 1.139. Also, the Complete in experiment [1] (setting [10]) worked out at 1.003. Besides, the “Cholesterol-free media + simvastatin (0.04 μM)” value in experiment [2] (setting [11]) worked out at 0.8717. The “Complete Media” value in experiment [2] (setting [12]) is 0.811.
Molecule `O=C1CCc2cc(OCCCCc3nnnn3C3CCCCC3)ccc2N1` [Cilostazol] yielded a Cholesterol-free in experiment [1] (setting [14]) of 1.501. In addition, the Difference is −0.33 in experiment [1] (setting [15]) and 0.16 in experiment [2] (setting [16]). The “Cholesterol-free media + simvastatin (0.04 μM)” value in experiment [2] (setting [9]) came out at 0.8234. Further, the “Complete Media” value in experiment [2] (setting [10]) is 0.9809.
For the molecule `CC(=O)[C@]1(O)Cc2c(O)c3c(c(O)c2[C@@H](O[C@H]2C[C@H](N)[C@H](O)[C@H](C)O2)C1)C(=O)c1ccccc1C3=O` [Idarubicin (hydrochloride)], the Difference in experiment [1] (setting [3]) and in experiment [2] (setting [13]) was −0.01 each time. For the same molecule, the Cholesterol-free in experiment [1] (setting [4]) is −0.02296. The Complete in experiment [1] (setting [5]) was −0.02941. Further, the “Cholesterol-free media + simvastatin (0.04 μM)” value in experiment [2] (setting [11]) turned out to be 0.008408. For the same molecule, in experiment [2] (setting [12]), the “Complete Media” value is given as 0.002721.
`CCc1cc(C(N)=S)ccn1` [Ethionamide]: the values for the Difference in experiment [1] (setting [17]) and in experiment [2] (setting [13]) were −0.66 and 0.00, respectively. In experiment [1] (setting [18]), this molecule had a Cholesterol-free of 1.516. In experiment [1] (setting [19]), this molecule yielded a Complete of 0.857. Moreover, the “Cholesterol-free media + simvastatin (0.04 μM)” value in experiment [2] (setting [11]) was found to be 1.611. Also, the “Complete Media” value in experiment [2] (setting [12]) is reported as 1.611.
In turn, `C/C(=C(\CCOP(=O)(O)O)SC(=O)c1ccccc1)N(C=O)Cc1cnc(C)nc1N` [Benfotiamine] had a Cholesterol-free in experiment [1] (setting [14]) of 1.163. In addition, in experiment [1] (NCI-H292 cells, complete media), the Complete came out at 0.7915. Further, the Difference in experiment [1] (setting [15]) is reported as −0.37; in experiment [2] (setting [8]) it was −0.15. For the same molecule, in experiment [2] (setting [9]), the “Cholesterol-free media + simvastatin (0.04 μM)” value was determined as 1.23. Moreover, the “Complete Media” value in experiment [2] (setting [10]) worked out at 1.076.
Regarding `O=C(O)c1cccnc1` [Niacin], the Difference is recorded as −0.27 in experiment [1] (setting [3]) and 0.12 in experiment [2] (setting [16]). The molecule also gave a Cholesterol-free in experiment [1] (setting [14]) of 1.266. The molecule further displayed a Complete in experiment [1] (NCI-H292 cells, complete media) of 0.9994. Moreover, the “Cholesterol-free media + simvastatin (0.04 μM)” value in experiment [2] (setting [20]) is reported as 1.244. In experiment [2] (setting [21]), the “Complete Media” value stood at 1.362.
For `Cc1ccc2c(c1)c1c(n2CCc2ccc(C)nc2)CCN(C)C1` [Latrepirdine (dihydrochloride)], the results for the Difference in experiment [1] (setting [17]) and in experiment [2] (setting [16]) were −0.58 and 0.03, respectively. This molecule also displayed a Cholesterol-free in experiment [1] (setting [18]) of 1.66. The same molecule yielded a Complete in experiment [1] (setting [19]) of 1.083. In addition, the “Cholesterol-free media + simvastatin (0.04 μM)” value in experiment [2] (setting [20]) is 1.036. Besides, the “Complete Media” value in experiment [2] (setting [21]) is recorded as 1.07.
Take `CNC(=O)c1c(I)c(NC(C)=O)c(I)c(C(=O)O)c1I` [Iotalamic acid]: the Difference in experiment [1] (setting [3]) was −0.29; in experiment [2] (setting [8]) it was −0.47. The same molecule gave a Cholesterol-free in experiment [1] (setting [14]) of 1.385. In experiment [1] (NCI-H292 cells, complete media), this molecule displayed a Complete of 1.091. Moreover, in experiment [2] (setting [6]), the “Cholesterol-free media + simvastatin (0.04 μM)” value was found to be 1.459. In addition, the “Complete Media” value in experiment [2] (setting [7]) was 0.9854.
For the molecule `O=c1cccc2n1C[C@@H]1CNC[C@H]2C1` [Cytisinicline], in experiment [1], the Cholesterol-free stood at 1.156, the Complete worked out at 0.9676 and the Difference is on record as −0.19. In addition, in experiment [2], the “Cholesterol-free media + simvastatin (0.04 μM)” value is reported as 1.003, the “Complete Media” value is reported as 1.015 and the Difference was found to be 0.01.
With Goserelin (acetate), the Difference in experiment [1] (Complete minus Cholesterol-free, […]) is given as −0.26; in experiment [2] (complete media vs cholesterol-free media + simvastatin (0.04 μM), […]) it was −0.25. The molecule also registered a Cholesterol-free in experiment [1] (setting [14]) of 1.173. This molecule also registered a Complete in experiment [1] (NCI-H292 cells, complete media) of 0.9084. Further, the “Cholesterol-free media + simvastatin (0.04 μM)” value in experiment [2] (NCI-H292 cells, drug in cholesterol-free media with simvastatin 0.04 μM) is recorded as 1.497. Further, in experiment [2] (NCI-H292 cells, drug in complete media), the “Complete Media” value was 1.249.
For `CC(=O)OCC(=O)[C@@]12N=C(C)O[C@@H]1C[C@H]1[C@@H]3CCC4=CC(=O)C=C[C@]4(C)[C@H]3[C@@H](O)C[C@@]12C` [Deflazacort], the Cholesterol-free in experiment [1] (setting [4]) is 0.629. In experiment [1] (setting [5]), this molecule returned a Complete of 0.7651. For the same molecule, the Difference is given as 0.14 in experiment [1] (complete vs cholesterol-free media, >0 enhanced anti-cancer activity, about 0 neutral, <0 antagonist) and −0.04 in experiment [2] (setting [13]). The “Cholesterol-free media + simvastatin (0.04 μM)” value in experiment [2] (setting [11]) amounted to 0.6257. Further, the “Complete Media” value in experiment [2] (setting [12]) is on record as 0.5899.
For the molecule Enalapril (maleate), the Cholesterol-free in experiment [1] (setting [14]) came out at 1.397. Further, the results for the Difference in experiment [1] (setting [15]) and in experiment [2] (setting [16]) were −0.34 and 0.19, respectively. The “Cholesterol-free media + simvastatin (0.04 μM)” value in experiment [2] (setting [9]) is given as 1.132. Also, the “Complete Media” value in experiment [2] (setting [10]) is given as 1.317.
`CC[C@H]1OC(=O)[C@H](C)C(=O)[C@H](C)[C@@H](O[C@@H]2O[C@H](C)C[C@H](N(C)C)[C@H]2O)[C@](C)(OC)C[C@@H](C)C(=O)[C@H](C)[C@H]2N(CCCCn3cnc(-c4cccnc4)c3)C(=O)O[C@]12C` [Telithromycin]: the Difference is −0.51 in experiment [1] (setting [17]) and −0.02 in experiment [2] (setting [13]). The Cholesterol-free in experiment [1] (setting [18]) was determined as 1.316. In experiment [1] (setting [19]), the Complete is reported as 0.8019. Besides, the “Cholesterol-free media + simvastatin (0.04 μM)” value in experiment [2] (setting [11]) is listed as 0.872. In addition, in experiment [2] (setting [12]), the “Complete Media” value is listed as 0.854.
`CCCOc1ccc(C(=O)OCCN(CC)CC)cc1N` [Proparacaine (Hydrochloride)] came in with a Cholesterol-free in experiment [1] (setting [14]) of 1.255. The Complete in experiment [1] (NCI-H292 cells, complete media) was 0.8769. The Difference in experiment [1] (setting [15]) is reported as −0.38; in experiment [2] (setting [16]), 0.48. Moreover, the “Cholesterol-free media + simvastatin (0.04 μM)” value in experiment [2] (setting [9]) amounted to 0.544. The “Complete Media” value in experiment [2] (setting [10]) is 1.021.
On to `CC(C)OC(=O)CCC/C=C\C[C@@H]1[C@@H](CC[C@@H](O)CCc2ccccc2)[C@H](O)C[C@@H]1O` [Latanoprost], for which the Difference in experiment [1] (setting [17]) was −0.48; in experiment [2] (setting [13]), −0.05. The same molecule registered a Cholesterol-free in experiment [1] (setting [18]) of 1.483. In addition, the Complete in experiment [1] (setting [19]) is recorded as 1.005. Further, the “Cholesterol-free media + simvastatin (0.04 μM)” value in experiment [2] (setting [11]) was 1.031. In experiment [2] (setting [12]), the “Complete Media” value came out at 0.9769.
